Measured values taken from PMC2829425 (Protein expression and purification, 2010).

Experiments:
[1] = biological target: T1, zebrafish monoamine oxidase (zMAO) (Danio rerio, UniProt Q6NSN2); assay: irreversible inhibition of purified enzyme; type: biochemical
T1 sequence (Q6NSN2 1-522): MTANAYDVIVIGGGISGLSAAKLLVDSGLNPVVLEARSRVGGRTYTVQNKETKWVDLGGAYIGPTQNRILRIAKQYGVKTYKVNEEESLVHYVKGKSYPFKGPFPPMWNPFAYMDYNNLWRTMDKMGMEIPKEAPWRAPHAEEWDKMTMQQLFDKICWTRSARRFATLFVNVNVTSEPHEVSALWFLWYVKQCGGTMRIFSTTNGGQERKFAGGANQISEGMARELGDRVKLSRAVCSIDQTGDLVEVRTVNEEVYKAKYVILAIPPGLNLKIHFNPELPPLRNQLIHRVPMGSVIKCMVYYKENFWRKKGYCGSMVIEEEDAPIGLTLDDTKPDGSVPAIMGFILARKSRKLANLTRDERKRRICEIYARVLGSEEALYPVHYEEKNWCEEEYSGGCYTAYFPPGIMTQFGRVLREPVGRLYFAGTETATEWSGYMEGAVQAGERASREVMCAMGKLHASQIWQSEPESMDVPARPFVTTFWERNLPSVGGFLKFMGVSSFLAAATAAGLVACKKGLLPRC

[2] = biological target: T1, zebrafish monoamine oxidase (zMAO); assay: steady-state kinetics, benzaldehyde formation at […] nm; type: biochemical; settings: read-out: Benzylamine
[3] = biological target: T1, zebrafish monoamine oxidase (zMAO); assay: specific activity of purified enzyme, 4-hydroxyquinoline formation at […] nm; type: biochemical
[4] = substrate: NCCc1ccccc1; assay: steady-state kinetics, Amplex red/peroxidase-coupled assay; type: biochemical, Danio rerio; settings: covalent FAD ([…]α-S-cysteinylFAD); pH 7.4; 25.0 °C

C#CCN(C)CCCOc1ccc(Cl)cc1Cl [Clorgyline]
IC50 [1]: 64 µM

NCc1ccccc1 [Benzylamine]
Km [2]: 82.2 ± 9 µM

C#CCN(C)C(C)Cc1ccccc1 (stereo not shown) [Deprenyl]
IC50 [1]: 6.5 µM

NCCC(=O)c1ccccc1N [Kynuramine]
specific activity of purified enzyme, 4-hydroxyquinoline formation at 316 nm [3]: 1.5 U/mg

B1: zebrafish monoamine oxidase (zMAO) (Danio rerio) (protein)
chain: MTANAYDVIVIGGGISGLSAAKLLVDSGLNPVVLEARSRVGGRTYTVQNKETKWVDLGGAYIGPTQNRILRIAKQYGVKTYKVNEEESLVHYVKGKSYPFKGPFPPMWNPFAYMDYNNLWRTMDKMGMEIPKEAPWRAPHAEEWDKMTMQQLFDKICWTRSARRFATLFVNVNVTSEPHEVSALWFLWYVKQCGGTMRIFSTTNGGQERKFAGGANQISEGMARELGDRVKLSRAVCSIDQTGDLVEVRTVNEEVYKAKYVILAIPPGLNLKIHFNPELPPLRNQLIHRVPMGSVIKCMVYYKENFWRKKGYCGSMVIEEEDAPIGLTLDDTKPDGSVPAIMGFILARKSRKLANLTRDERKRRICEIYARVLGSEEALYPVHYEEKNWCEEEYSGGCYTAYFPPGIMTQFGRVLREPVGRLYFAGTETATEWSGYMEGAVQAGERASREVMCAMGKLHASQIWQSEPESMDVPARPFVTTFWERNLPSVGGFLKFMGVSSFLAAATAAGLVACKKGLLPRC
Km [4]: 86 ± 13 µM | kcat [4]: 3.4 ± 0.145 s⁻¹ | kcat/Km [4]: 39500 ± 3170 M⁻¹ s⁻¹
